Experimental data reported in patent US4443448A, “Indane derivatives, pharmaceutical compositions thereof and method of preparation” (priority 1980, dated 1984).

Experiments:
[1] = in vivo; design: species or system rats; settings: for Ratio catalep./Amphet.: catalepsy ED50 / amphetamine antagonism ED50; for ED50: rat, in vivo, po, read-out: Catalep. (catalepsy wire mesh, rat, max, ED50)
Description: A vertical wire netting (50 cm×49 cm). The meshes (openings) of the netting are square (1 cm×1 cm). The wire diameter is 2 mm.
The animals are labeled and used in groups of five. The test substance is administered orally (p.o) at 4 dose levels selected from the fixed dose scale.
The animals are placed in the middle of the vertical wire netting 60, 120, 180, 240, 300 and 360 minutes after administration of the test compound. The animals are considered cataleptic when they remain immobile during a period of 15 seconds.
This cataleptic reaction is designated +. If the rats are "atonic" and passively slide down the wire mesh they are considered not cataleptic. If the animals climb up and down the wire mesh they are nor cataleptic.
In both situations the designation--is used.

[2] = system: methylphenidate; assay: Methylphenidate antagonism in mice; format: in vivo; settings: for ED50: Mus musculus, ip, 2 h, read-out: MePh antag. ED50 2 hr i.p., mice, test substance i.p., 2 hr before methylphenidate 60 mg/kg s.c.
Description: Methylphenidate antagonism (ED50 mg/kg i.p.)
(§1) Perspex observation cages without bottom and lid, consisting of 5 sections each measuring 12×25×30 cm.
3×2 mice are used for each dose level. Two or 24 hours after injection of test substance, methylphenidate, 60 mg/kg, is injected s.c. After administration of methylphenidate the mice are placed in the observation cages, 2 in each cage, where they remain for exactly 1 hour. The cages were placed on corrugated paper, the corrugations facing upwards. It is examined whether the mice have been biting the corrugated paper or not. […] If one or more of the control pairs have not been biting, the test has to be repeated on a new set of mice.
The result is stated in fractions: 0/3, 1/3, 2/3 and 3/3 where 0, 1, 2 and 3 are the number of pairs which have not been biting on receipt of the dose in question.

[3] = Mouse grid shock (analgesia); format: in vivo; settings: mice, minimal effective dose, in mg/kg
Description: The mouse grid consists of a perspex cage with wire grid bottom and a perspex lid, on which is placed a microphone sensitive to the frequency of a mouse squeak. A stimulator with motordriven potentiometer applies a sequence of square wave impulses of continuously increasing milliamperage to the grid. Frequency of impulses 20 cycles/sec., duration 5 msec. Milliamperage is recorded on a digital amperemeter connected to the stimulator. Activation of the microphone by a mouse-squeak cuts off the current and the final milliamperage appears on the meter.
Five mice are used for each dose level. Each mouse serves as its own control.
Prior to the administration of test substance the animals are placed on the grid one at a time, and the pain threshold is determined by increasing the current intensity until the mouse squeaks. The pain threshold may be read on the milliamperemeter. Fifteen minutes and 30 minutes after administration of test substance the mice are tested again and the pain thresholds recorded.
Analgesic effect is present, when the pain threshold is increased over the pre-dosing value (control value). The results are stated as % increase in pain threshold calculated on the basis of the control value.
The registration can also be done as an on-line procedure. In this case the punching instruction and punching cards will be provided automatically and the results will be registered as a minimal effective dose (MED) determined after van der Waerdens X-test.

[4] = system: 3H-DA uptake in striatal synaptosomes; assay: 3H-DA uptake in striatal synaptosomes in vitro; format: biochemical, rats; settings: rat striatal synaptosomes, 12.5 nM 3H-DA, 37° C., pH 7.4
Description: ^3 H-DA uptake in striatal synaptosomes in vitro
0.32 M sucrose containing 1 mM Nialamide
Millipore filters (HAWPO 2500, 0.45μ)
3,4-dihydroxyphenylethylamine[ethyl-1-^3 H(N)]=^3 H-DA spc. act. app. 15 Ci/mmol, New England Nuclear Thomas Tissue Grinder, clearance 0.004-0.006 inch.
Rats are killed by a blow to their head, exsanguinated and their brains removed. The brain is placed on a precooled glassplate, and the two corpura striata are dissected out and gently homogenized in 40 volumes of ice cold 0.32 M sucrose containing 1 mM of nialamide using a hand homogenizer with teflon pestle. The P2 -fraction (synaptosomal fraction) is obtained by centrifugation (600 g, 10 min., 25000 g, 55 min. 4° C.) and suspended in 40 volumes of a modified Krebs-Ringer-phosphate buffer, pH 7.4. To 200 μl of the synaptosomal fraction on ice are added 3700 μl modified Krebs-Ringer-phosphate buffer--containing test compounds. After a preincubation at 37° C. for 5 min. […] The incubation is terminated by filtering the samples under vacuum through Millipore filters with a wash of 5 ml buffer containing 10 μM of unlabelled DA. After solubilizing the filters in 1 ml of cellosolve the radioactivity is determined by liquid scintillation counting after the addition of 10 ml of Insta-Gel. The unspecific binding of ^3 H-DA is determined by incubating control samples on ice instead of at 37° C.
All experiments are performed in triplicate.
The mean of all control samples and ice samples are calculated. […] The IC50-values are determined as the concentrations, at which the uptake are 50 percent of the uptake in control samples-uptake in ice samples.

[5] = system: amphetamine; assay: Amphetamine antagonism in rats; format: in vivo; settings: rats, p.o., amphetamine 10 mg/kg base i.v.; for ED50: Rattus norvegicus, po, read-out: Amphetamine antag. ED50 p.o.
Description: Amphetamine antagonism (ED50 mg/kg i.p.)
as §1
The test substance is given p.o. in a reasonable dose based on the determined LD50. Two or 24 hours later an intravaneous injection of amphetamine sulphate 13.6 mg/kg (10 mg/kg amphetamine base) is given, after which the rats are placed individually in the cages. The cages are placed on white corrugated paper. Five rats are used for each dose level. Observations are made after 55 minutes and 65 minutes-observation time: 1 minute. The animals are observed for stereotypy (movements of the head, compulsive gnawing). […] If the compound has full antagonistic effect another group of rats is used at a lower dose. […] The result is stated as fractions: 0/5, 1/5, 2/5, 3/5, 4/5 and 5/5, where 0, 1, 2, 3, 4 and 5 indicate the number of rats which have not shown stereotypy at the dose in question. The results are calculated as ED50 in mg/kg.

[6] = in vivo; settings: iv
[7] = rats, p.o., strongest effect within first 6 hours

| SMILES | MED Grid Shock [3] | IC50 [4] [nM] | other results |
| --- | --- | --- | --- |
| OCCCN1CCN([C@@H]2C[C@@H](c3ccc(F)cc3)c3ccc(F)cc32)CC1 (relative stereo) [Lu 14-036] | 5 | 73 | Ratio catalep./Amphet. [1]: 1.6; ED50 [1, 7]: 3.7 mg/kg; ED50 [2]: 1.6 mg/kg; ED50 [5]: 2.3 mg/kg; LD50 [6]: 129 mg/kg |
| CN1CCN([C@@H]2C[C@@H](c3ccccc3)c3ccc(F)cc32)CC1 (relative stereo) [Lu 14-067] | 5 | 68 | ED50 [2]: > 40 mg/kg |
| OCCN1CCN([C@@H]2C[C@@H](c3ccc(F)cc3)c3ccc(Cl)cc32)CC1 (relative stereo) [Lu 14-068] | 0.31 | 84 | Ratio catalep./Amphet. [1]: 0.9; ED50 [1, 7]: 1.5 mg/kg; ED50 [2]: 1.3 mg/kg; ED50 [5]: 1.6 mg/kg; LD50 [6]: 94 mg/kg |
| CN1CCN([C@@H]2C[C@H](c3ccc(Cl)c(Cl)c3)c3ccccc32)CC1 (relative stereo) [Lu 17-109] |  | 4 |  |
| CN1CCN([C@@H]2C[C@@H](c3ccc(Cl)c(Cl)c3)c3ccccc32)CC1 (relative stereo) [Lu 17-110] |  | 11 |  |
| OCCN1CCN([C@@H]2C[C@H](c3ccc(Cl)c(Cl)c3)c3ccccc32)CC1 (relative stereo) [Lu 17-132] |  | 12 |  |
| OCCN1CCN([C@@H]2C[C@@H](c3ccc(Cl)c(Cl)c3)c3ccccc32)CC1 (relative stereo) [Lu 17-133] |  | 3 |  |
| OCCCCN1CCN([C@@H]2C[C@@H](c3ccc(F)cc3)c3ccc(F)cc32)CC1 (relative stereo) [Lu 18-080] | < 1.3 | 25 | Ratio catalep./Amphet. [1]: 6.2; ED50 [1, 7]: 21.8 mg/kg; ED50 [2]: 2.9 mg/kg; ED50 [5]: 3.5 mg/kg; LD50 [6]: 80 mg/kg |
| OCCCN1CCN([C@@H]2C[C@@H](c3ccc(Cl)c(Cl)c3)c3ccccc32)CC1 (relative stereo) [Lu 18-081] |  | 15 |  |
| OCCCN1CCN([C@@H]2C[C@H](c3ccc(Cl)c(Cl)c3)c3ccccc32)CC1 (relative stereo) [Lu 18-082] |  | 6 |  |
| OCCCCN1CCN([C@@H]2C[C@H](c3ccc(Cl)c(Cl)c3)c3ccccc32)CC1 (relative stereo) [Lu 18-120] |  | 5 |  |
| OCCCCN1CCN([C@@H]2C[C@@H](c3ccc(Cl)c(Cl)c3)c3ccccc32)CC1 (relative stereo) [Lu 18-121] |  | 11 |  |
| OCC(O)CN1CCN(C2CC(c3ccc(F)cc3)c3ccc(F)cc32)CC1 (single isomer, unassigned) [Lu 17-066] | 2.5 | 27 | Ratio catalep./Amphet. [1]: 8.9; ED50 [1, 7]: > 160 mg/kg; ED50 [2]: 1.6 mg/kg; ED50 [5]: 18 mg/kg; LD50 [6]: > 160 mg/kg |
| OCC(O)CN1CCN(C2CC(c3ccc(F)cc3)c3ccc(F)cc32)CC1 (single isomer, unassigned) [Lu 17-079] |  | 12 |  |
| OCC(O)CN1CCN(C2CC(c3ccc(Cl)c(Cl)c3)c3ccccc32)CC1 (single isomer, unassigned) [Lu 18-128] |  | 12 |  |
| OCC(O)CN1CCN(C2CC(c3ccc(Cl)c(Cl)c3)c3ccccc32)CC1 (single isomer, unassigned) [Lu 18-129] |  | 14 |  |
| CN1CCN(C2CC(c3ccc(F)cc3)c3ccc(F)cc32)CC1 (single isomer, unassigned; (-)) [Lu 17-152, (-) 1-Methyl-4-(3-(4'-fluorophenyl)-6-fluoro-1-indanyl)piperazine] | 5 | 88 | Catalep. (catalepsy wire mesh, rat, max, ED50) [1, 7]: > 320 mg/kg; MePh antag. ED50 2 hr i.p. ([2]; mice, test substance i.p., 2 hr before methylphenidate 60 mg/kg s.c., 120 min): 17 mg/kg; Amphetamine antag. ED50 p.o. [5]: > 80 mg/kg |
| CC(O)CN1CCN(C2CC(c3ccc(F)cc3)c3ccc(F)cc32)CC1 (stereo not drawn) [Lu 17-144, 1-(2-hydroxy-1-propyl)-4-(3-(4'-fluorophenyl)-6-fluoro-1-indanyl)piperazine] |  | 18 |  |
